From patent publication US9708336B2, “Metallo-beta-lactamase inhibitors” (priority 2014, dated 2017) come the findings set out here.

The target in experiment [1] is NDM-1 (Klebsiella pneumoniae, UniProt C7C422). In words: biochemical. To be noted: NDM-1 enzyme, CCF2-FA fluorescence assay; read-out: NDM-1 IC50. It counts as biochemical.
The target of experiment [2] is IMP-1 (Serratia marcescens, UniProt P52699). As to the kind of experiment: biochemical. It is filed as biochemical. The note with it: IMP-1 enzyme, CCF2-FA fluorescence assay; read-out: IMP-1 IC50.
In experiment [3] the target is VIM-1 (Pseudomonas aeruginosa (strain ATCC 15692 / DSM 22644 / CIP 104116 / JCM 14847 / LMG 12228 / 1C / PRS 101 / PAO1), UniProt A0A0F7KYQ8). As to the kind of experiment: Enzyme activity: determination of IC50, fluorescence assay with CCF2-FA substrate (VIM-1). It counts as biochemical. To be noted: CCF2-FA fluorescence assay.
For experiment [4], the system named is Escherichia coli expressing NDM-1 (CLB30016). In words: Antibiotic potentiation activity: synergistic concentration (MITC95) with imipenem, OD600 growth. It is filed as cell-based. To be noted: Escherichia coli expressing NDM-1 (CLB30016), 95% growth inhibition. The method in brief:
(§1)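 Test compound was combined with 4 μg/ml imipenem (or optionally 1 μg/ml), or with no antibiotic, against saline-suspended colonies diluted 1:100 in 1.1×CAMHB. Strains were E. coli NDM-1, S. marcescens IMP-1 and K. pneumoniae VIM-1. Plates were incubated 22–24 h at 35 °C before absorbance (OD600) readout.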

Experiment [5] concerns Klebsiella pneumoniae expressing VIM-1 (IHMA599644). The experiment is described as above. The note with it: Klebsiella pneumoniae expressing VIM-1 (IHMA599644), 95% growth inhibition. It counts as cell-based. The method in brief: as §1
Experiment [6] deals with Serratia marcescens expressing IMP-1 (CL5741). Described as above. To be noted: Serratia marcescens expressing IMP-1 (CL5741), 95% growth inhibition. It counts as cell-based. The gist of the method:
as §1

The mark [7] stands for this setting: VIM-1 enzyme, read-out: VIM-1 IC50.

As usually defined, the pIC50 is the IC50 on a negative log10 scale, so that one unit is a factor of ten.

SMILES strings stand for the structures. pIC50: −log10 of the molar value. Read-outs that look alike come from different tables or passages of the source.

Chain of IMP-1 (P52699 whole entry, looked up): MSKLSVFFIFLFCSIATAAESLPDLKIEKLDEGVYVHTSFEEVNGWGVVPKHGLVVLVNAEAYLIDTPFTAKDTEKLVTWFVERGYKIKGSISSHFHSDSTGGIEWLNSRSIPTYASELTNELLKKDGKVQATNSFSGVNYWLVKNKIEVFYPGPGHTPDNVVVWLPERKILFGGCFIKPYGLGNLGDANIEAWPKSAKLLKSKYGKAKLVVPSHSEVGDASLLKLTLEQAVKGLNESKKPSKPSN
Chain of NDM-1 (C7C422 whole entry, looked up, species assumed): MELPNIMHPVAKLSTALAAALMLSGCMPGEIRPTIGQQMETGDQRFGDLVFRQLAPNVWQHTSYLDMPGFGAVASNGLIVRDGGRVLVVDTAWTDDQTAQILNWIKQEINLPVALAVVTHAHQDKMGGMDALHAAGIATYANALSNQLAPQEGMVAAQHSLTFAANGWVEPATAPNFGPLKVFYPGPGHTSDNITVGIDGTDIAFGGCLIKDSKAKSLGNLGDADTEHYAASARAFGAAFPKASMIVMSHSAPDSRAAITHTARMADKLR

Take `Nc1nc2cccc(-c3cccc(S(N)(=O)=O)c3-c3nn[nH]n3)c2[nH]1` [Example 428, 3-(2-amino-1H-benzo[d]imidazol-7-yl)-2-(2H-tetrazol-5-yl)benzenesulfonamide]: the negative logarithm of the IC50 (pIC50) is 9.17 in experiment [1], 6.46 in experiment [2] and 7.76 in experiment [3] (setting [7]). In experiment [4], the “Escherichia coli MITC95” value worked out at 0.0625 µM. The “Klebsiella pneumoniae MITC95” value in experiment [5] is 1.531 µM. In experiment [6], the “Serratia marcescens MITC95” value stood at 6.25 µM.
Regarding `Nc1nc2ccc(-c3cccc(S(N)(=O)=O)c3-c3nn[nH]n3)cc2[nH]1` [Example 429], the pIC50 is 8.59 in experiment [1], 6.30 in experiment [2] and 7.52 in experiment [3] (setting [7]). For the same molecule, the “Escherichia coli MITC95” value in experiment [4] stood at 0.0625 µM. In addition, the “Klebsiella pneumoniae MITC95” value in experiment [5] came to 2.344 µM. The “Serratia marcescens MITC95” value in experiment [6] worked out at 6.25 µM.
As for `NS(=O)(=O)c1c(-c2ccc(C3CCNCC3)cc2)ccc(-c2ccc(C3CCNCC3)cc2)c1-c1nn[nH]n1` [Example 430, 3,6-bis[4-(4-piperidyl)phenyl]-2-(2H-tetrazol-5-yl)benzenesulfonamide], the negative-log IC50 (pIC50) is 7.28 in experiment [1]; 8.20 in experiment [2]; 7.29 in experiment [3] (VIM-1 IC50, VIM-1 enzyme). In addition, the “Escherichia coli MITC95” value in experiment [4] is 1.563 µM. In addition, in experiment [5], the “Klebsiella pneumoniae MITC95” value stood at 3.125 µM. Also, the “Serratia marcescens MITC95” value in experiment [6] was 0.3906 µM.
Consider `NS(=O)(=O)c1c(C(F)(F)F)ccc(CC[C@H]2CC[C@H](N)CC2)c1-c1nn[nH]n1` [Example 431, 3-(2-((1r,4s)-4-aminocyclohexyl)ethyl)-2-(2H-tetrazol-5-yl)-6-(trifluoromethyl)benzenesulfonamide], for which the pIC50 in experiment [1] is 7.75; in experiment [2] it was 8.43; in experiment [3] (setting [7]) it was 9.36. Further, the “Escherichia coli MITC95” value in experiment [4] was found to be 2.563 µM. The “Klebsiella pneumoniae MITC95” value in experiment [5] came out at 1.531 µM. In experiment [6], the “Serratia marcescens MITC95” value was 0.125 µM.
Turning to `NS(=O)(=O)c1c(C(F)(F)F)ccc(CC[C@H]2CC[C@@H](N)CC2)c1-c1nn[nH]n1` [Example 432, 3-(2-((1s,4r)-4-aminocyclohexyl)ethyl)-2-(2H-tetrazol-5-yl)-6-(trifluoromethyl)benzenesulfonamide], the values for the negative logarithm of the IC50 (pIC50) in experiment [1], in experiment [2] and in experiment [3] (setting [7]) were 7.32, 7.93 and 8.33, respectively. In addition, the “Escherichia coli MITC95” value in experiment [4] stood at 6.25 µM. Moreover, in experiment [5], the “Klebsiella pneumoniae MITC95” value stood at 18.75 µM. Also, the “Serratia marcescens MITC95” value in experiment [6] came to 0.3906 µM.
`NS(=O)(=O)c1c(C(F)(F)F)ccc(-c2ccc(C3CNC3)cc2)c1-c1nn[nH]n1` [Example 433, 4′-(azetidin-3-yl)-2-(2H-tetrazol-5-yl)-4-(trifluoromethyl)-[1,1′-biphenyl]-3-sulfonamide]: the negative-log IC50 (pIC50) in experiment [1] was 9.06; in experiment [2], 9.25; in experiment [3] (setting [7]), 9.01. The “Escherichia coli MITC95” value in experiment [4] was 0.6406 µM. Also, the “Klebsiella pneumoniae MITC95” value in experiment [5] worked out at 0.7656 µM. Further, in experiment [6], the “Serratia marcescens MITC95” value came to 0.1875 µM.
On to `N=C(N)N1CC(c2ccc(-c3ccc(C(F)(F)F)c(S(N)(=O)=O)c3-c3nn[nH]n3)cc2)C1` [Example 434, 3-(3′-sulfamoyl-2′-(2H-tetrazol-5-yl)-4′-(trifluoromethyl)-[1,1′-biphenyl]-4-yl)azetidine-1-carboximidamide], for which the results for the negative logarithm of the IC50 (pIC50) in experiment [1], in experiment [2] and in experiment [3] (setting [7]) were 8.75, 8.73 and 9.76, respectively. In experiment [4], the “Escherichia coli MITC95” value was found to be 0.543 µM. The “Klebsiella pneumoniae MITC95” value in experiment [5] amounted to 0.7656 µM. Further, in experiment [6], the “Serratia marcescens MITC95” value came to 0.09375 µM.
`C[N+]1(C)CC(c2ccc(-c3ccc(C(F)(F)F)c(S(N)(=O)=O)c3-c3nn[nH]n3)cc2)C1` [Example 435, 1,1-dimethyl-3-(3′-sulfamoyl-2′-(2H-tetrazol-5-yl)-4′-(trifluoromethyl)-[1,1′-biphenyl]-4-yl)azetidin-1-ium]: the values for the pIC50 in experiment [1], in experiment [2] and in experiment [3] (setting [7]) were 7.92, 7.96 and 8.62, respectively. Moreover, the “Escherichia coli MITC95” value in experiment [4] amounted to 1.281 µM. In addition, the “Klebsiella pneumoniae MITC95” value in experiment [5] was determined as 3.125 µM. The “Serratia marcescens MITC95” value in experiment [6] amounted to 0.25 µM.
`NC1(c2ccc(-c3ccc(C(F)(F)F)c(S(N)(=O)=O)c3-c3nn[nH]n3)cc2)CCNCC1` [Example 436, 4′-(4-aminopiperidin-4-yl)-2-(2H-tetrazol-5-yl)-4-(trifluoromethyl)-[1,1′-biphenyl]-3-sulfonamide]: the pIC50 in experiment [1] was 8.03; in experiment [2] it was 7.89; in experiment [3] (setting [7]) it was 8.52. Further, the “Escherichia coli MITC95” value in experiment [4] is 0.375 µM. Also, in experiment [5], the “Klebsiella pneumoniae MITC95” value was found to be 0.8542 µM. The “Serratia marcescens MITC95” value in experiment [6] came to 0.2552 µM.
Regarding `N=CN1CCC(N)(c2ccc(-c3ccc(C(F)(F)F)c(S(N)(=O)=O)c3-c3nn[nH]n3)cc2)CC1` [Example 437, 4′-(4-amino-1-(iminomethyl)piperidin-4-yl)-2-(2H-tetrazol-5-yl)-4-(trifluoromethyl)-[1,1′-biphenyl]-3-sulfonamide], the pIC50 is 8.10 in experiment [1], 8.11 in experiment [2] and 8.10 in experiment [3] (setting [7]). In addition, the “Escherichia coli MITC95” value in experiment [4] is 0.3906 µM. In experiment [5], the “Klebsiella pneumoniae MITC95” value amounted to 3.125 µM. For the same molecule, the “Serratia marcescens MITC95” value in experiment [6] is 0.3906 µM.
For the molecule `N=C(N)N1CCC(N)(c2ccc(-c3ccc(C(F)(F)F)c(S(N)(=O)=O)c3-c3nn[nH]n3)cc2)CC1` [Example 438, 4-amino-4-(3′-sulfamoyl-2′-(2H-tetrazol-5-yl)-4′-(trifluoromethyl)-[1,1′-biphenyl]-4-yl)piperidine-1-carboximidamide], the negative logarithm of the IC50 (pIC50) is 8.43 in experiment [1]; 8.39 in experiment [2]; 7.97 in experiment [3] (VIM-1 IC50, VIM-1 enzyme). Further, the “Escherichia coli MITC95” value in experiment [4] was found to be 0.125 µM. For the same molecule, in experiment [5], the “Klebsiella pneumoniae MITC95” value is 2.563 µM. For the same molecule, the “Serratia marcescens MITC95” value in experiment [6] came to 0.25 µM.
For the molecule `NCc1ccc(-c2ccc(C(F)(F)F)c(S(N)(=O)=O)c2-c2nn[nH]n2)cc1` [Example 439, 4′-(aminomethyl)-2-(2H-tetrazol-5-yl)-4-(trifluoromethyl)-[1,1′-biphenyl]-3-sulfonamide], the negative logarithm of the IC50 (pIC50) is 7.93 in experiment [1], 7.69 in experiment [2] and 8.39 in experiment [3] (setting [7]). Also, the “Escherichia coli MITC95” value in experiment [4] came out at 0.7813 µM. The “Klebsiella pneumoniae MITC95” value in experiment [5] was determined as 1.563 µM. Also, the “Serratia marcescens MITC95” value in experiment [6] worked out at 0.5859 µM.
For the molecule `N=C(N)NCc1ccc(-c2ccc(C(F)(F)F)c(S(N)(=O)=O)c2-c2nn[nH]n2)cc1` [Example 440, 4′-(guanidinomethyl)-2-(2H-tetrazol-5-yl)-4-(trifluoromethyl)-[1,1′-biphenyl]-3-sulfonamide], the pIC50 in experiment [1] is 8.41; in experiment [2], 8.47; in experiment [3] (setting [7]), 9.45. Moreover, the “Escherichia coli MITC95” value in experiment [4] is 0.25 µM. Further, in experiment [5], the “Klebsiella pneumoniae MITC95” value amounted to 0.7656 µM. Besides, the “Serratia marcescens MITC95” value in experiment [6] came out at 0.0625 µM.
For the molecule `NS(=O)(=O)c1c(C(F)(F)F)ccc(-c2ccc3c(c2)CNC3)c1-c1nn[nH]n1` [Example 441, 3-(isoindolin-5-yl)-2-(2H-tetrazol-5-yl)-6-(trifluoromethyl)benzenesulfonamide], the pIC50 is 7.95 in experiment [1], 7.66 in experiment [2] and 9.08 in experiment [3] (setting [7]). In addition, the “Escherichia coli MITC95” value in experiment [4] stood at 1.172 µM. Further, the “Klebsiella pneumoniae MITC95” value in experiment [5] worked out at 0.7813 µM. The “Serratia marcescens MITC95” value in experiment [6] was found to be 1.563 µM.
Take `NC1Cc2ccc(-c3ccc(C(F)(F)F)c(S(N)(=O)=O)c3-c3nn[nH]n3)cc2C1` (stereo not drawn) [Example 442, 3-(2-amino-2,3-dihydro-1H-inden-5-yl)-2-(2H-tetrazol-5-yl)-6-(trifluoromethyl)benzenesulfonamide]: the negative logarithm of the IC50 (pIC50) in experiment [1] was 7.93; in experiment [2] it was 7.78; in experiment [3] (setting [7]), 9.57. For the same molecule, the “Escherichia coli MITC95” value in experiment [4] was found to be 1.172 µM. Further, in experiment [5], the “Klebsiella pneumoniae MITC95” value stood at 0.7813 µM. The “Serratia marcescens MITC95” value in experiment [6] stood at 0.5859 µM.
Regarding `NS(=O)(=O)c1c(C(F)(F)F)ccc(-c2ccc(C3CCNC3)cc2)c1-c1nn[nH]n1` (stereo not drawn) [Example 443, 4′-(pyrrolidin-3-yl)-2-(2H-tetrazol-5-yl)-4-(trifluoromethyl)-[1,1′-biphenyl]-3-sulfonamide], the pIC50 in experiment [1] was 9.04; in experiment [2], 8.87; in experiment [3] (setting [7]), 9.30. Moreover, in experiment [4], the “Escherichia coli MITC95” value turned out to be 0.7734 µM. Besides, the “Klebsiella pneumoniae MITC95” value in experiment [5] amounted to 0.8906 µM. For the same molecule, the “Serratia marcescens MITC95” value in experiment [6] turned out to be 0.09375 µM.
In the case of `C[N+]1(C)CCC(c2ccc(-c3ccc(C(F)(F)F)c(S(N)(=O)=O)c3-c3nn[nH]n3)cc2)C1` (stereo not drawn) [Example 444, 1,1-dimethyl-3-(3′-sulfamoyl-2′-(2H-tetrazol-5-yl)-4′-(trifluoromethyl)-[1,1′-biphenyl]-4-yl)pyrrolidin-1-ium], the negative-log IC50 (pIC50) in experiment [1] is 8.60; in experiment [2], 8.48; in experiment [3] (setting [7]) it was 8.87. In addition, the “Escherichia coli MITC95” value in experiment [4] was determined as 2.344 µM. Besides, the “Klebsiella pneumoniae MITC95” value in experiment [5] came out at 4.688 µM. Also, the “Serratia marcescens MITC95” value in experiment [6] was determined as 0.3906 µM.
